The assay deals with T1, SIRT1 (Homo sapiens, UniProt Q96EB6).
T1 sequence (Q96EB6 1-747): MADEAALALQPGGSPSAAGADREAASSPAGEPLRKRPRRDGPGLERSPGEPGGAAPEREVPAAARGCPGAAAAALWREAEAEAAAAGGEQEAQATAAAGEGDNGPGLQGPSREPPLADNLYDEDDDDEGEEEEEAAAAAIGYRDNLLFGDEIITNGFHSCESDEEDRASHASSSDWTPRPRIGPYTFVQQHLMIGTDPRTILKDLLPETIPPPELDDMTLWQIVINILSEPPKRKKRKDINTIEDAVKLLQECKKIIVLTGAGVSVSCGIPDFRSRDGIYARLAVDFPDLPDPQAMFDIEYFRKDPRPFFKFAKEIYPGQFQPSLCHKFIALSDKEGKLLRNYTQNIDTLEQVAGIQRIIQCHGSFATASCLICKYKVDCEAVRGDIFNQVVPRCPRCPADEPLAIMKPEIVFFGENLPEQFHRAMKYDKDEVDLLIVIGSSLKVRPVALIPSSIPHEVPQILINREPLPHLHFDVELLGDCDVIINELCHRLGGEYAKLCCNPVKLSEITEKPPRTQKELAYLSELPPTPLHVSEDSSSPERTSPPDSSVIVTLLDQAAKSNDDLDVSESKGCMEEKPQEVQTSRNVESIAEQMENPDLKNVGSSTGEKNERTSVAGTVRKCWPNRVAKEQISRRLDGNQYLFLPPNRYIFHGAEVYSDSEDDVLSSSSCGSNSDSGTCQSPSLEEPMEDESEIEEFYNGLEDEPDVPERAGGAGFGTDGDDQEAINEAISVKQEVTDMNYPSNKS
Briefly: mass spectrometry based assay to identify modulators of SIRT1 activity (deacetylation of p53-based acetylated peptide). To be noted: SIRT1 activation, 10 nM SIRT1, 0.5 μM peptide substrate, 120 μM βNAD+, 25 minutes at 25° C.; for Emax: 25 min, read-out: % Fold Act. (percent maximum fold activation). The class given is biochemical. An excerpt:
A mass spectrometry based assay was used to identify modulators of SIRT1 activity. The mass spectrometry based assay utilizes a peptide having 20 amino acid residues as follows: Ac-EE-K(biotin)-GQSTSSHSK(Ac)NleSTEG-K(5TMR)-EE-NH2 (SEQ ID NO: 1) wherein K(Ac) is an acetylated lysine residue and Nle is a norleucine. The peptide is labeled with the fluorophore 5TMR (excitation 540 nm/emission 580 nm) at the C-terminus. The sequence of the peptide substrate is based on p53 with several modifications. In addition, the methionine residue naturally present in the sequence was replaced with the norleucine because the methionine may be susceptible to oxidation during synthesis and purification.
The mass spectrometry assay is conducted as follows: 0.5 μM peptide substrate and 120 μM βNAD^+ is incubated with 10 nM SIRT1 for 25 minutes at 25° C. in a reaction buffer (50 mM Tris-acetate pH 8, 137 mM NaCl, 2.7 mM KCl, 1 mM MgCl2, 5 mM DTT, 0.05% BSA). Test compounds may be added to the reaction as described above. The SirT1 gene is cloned into a T7-promoter containing vector and transformed into BL21(DE3). After the 25 minute incubation with SIRT1, 10 μL of 10% formic acid is added to stop the reaction. Reactions are sealed and frozen for later mass spec analysis. Determination of the mass of the substrate peptide allows for precise determination of the degree of acetylation (i.e. starting material) as compared to deacetylated peptide (product).
A control for inhibition of sirtuin activity is conducted by adding 1 μL of 500 mM nicotinamide as a negative control at the start of the reaction (e.g., permits determination of maximum sirtuin inhibition). A control for activation of sirtuin activity is conducted using 10 nM of sirtuin protein, with 1 μL of DMSO in place of compound, to determine the amount of deacetylation of the substrate at a given timepoint within the linear range of the assay. This timepoint is the same as that used for test compounds and, within the linear range, the endpoint represents a change in velocity.
For the above assay, SIRT1 protein was expressed and purified as follows. The SirT1 gene was cloned into a T7-promoter containing vector and transformed into BL21(DE3). The protein was expressed by induction with 1 mM IPTG as an N-terminal His-tag fusion protein at 18° C. overnight and harvested at 30,000×g. Cells were lysed with lysozyme in lysis buffer (50 mM Tris-HCl, 2 mM Tris[2-carboxyethyl]phosphine (TCEP), 10 μM ZnCl2, 200 mM NaCl) and further treated with sonication for 10 min for complete lysis. The protein was purified over a Ni-NTA column (Amersham) and fractions containing pure protein were pooled, concentrated and run over a sizing column (Sephadex S200 26/60 global). The peak containing soluble protein was collected and run on an Ion-exchange column (MonoQ). Gradient elution (200 mM-500 mM NaCl) yielded pure protein. This protein was concentrated and dialyzed against dialysis buffer (20 mM Tris-HCl, 2 mM TCEP) overnight. The protein was aliquoted and frozen at −80° C. until further use.
Sirtuin modulating compounds that activated SIRT1 were identified using the assay described above and are shown below in Table 1. The EC1-5 values for the activating compounds are represented by A (EC1-5<1.0 uM), B (EC1-5 1-25 uM), C (EC1-5>25 uM). The percent maximum fold activation is represented by A (Fold activation>150%) or B (Fold Activation<150%).

The text below walks through data of US20120108585A1, “BENZOXAZOLES, BENZTHIAZOLES AND RELATED ANALOGS AS SIRTUIN MODULATORS” (Sirtris Pharmaceuticals, Inc., priority 2008, published 2012).

Where only a bound is given, the exact number is not on record here.

For the compound `O=C(Nc1nc(CN2CCOCC2)cs1)c1cccc2nc(-c3cc(F)ccc3C(F)(F)F)oc12` [Compound 135], the Emax was > 150% and the EC1.5 result is reported as “B (EC1-5 1-25 uM)”.

For the compound `O=C(Nc1cccc(CN2CCOCC2)n1)c1cccc2nc(-c3cc(F)ccc3C(F)(F)F)oc12` [Compound 136], the Emax was > 150% and the EC1.5 entry is reported as “B (EC1-5 1-25 uM)”.

For `O=C(Nc1nccs1)c1cccc2oc(-c3ccccc3C(F)(F)F)nc12` [Compound 137, N-(thiazol-2-yl)-2-(2-(trifluoromethyl)phenyl)benzo[d]oxazole-4-carboxamide], the Emax was > 150% and the EC1.5 entry was “B (EC1-5 1-25 uM)”.

As for `O=C(Nc1ccccn1)c1cccc2oc(-c3ccccc3C(F)(F)F)nc12` [Compound 138], the Emax is > 150% and the EC1.5 result is recorded as “B (EC1-5 1-25 uM)”.

As to `O=C(Nc1nc(CN2CCOCC2)cs1)c1cccc2oc(-c3ccccc3C(F)(F)F)nc12` [Compound 139], the Emax was > 150% and the EC1.5 entry is recorded as “A (EC1-5<1.0 uM)”.

On to `O=C(Nc1cccc(CN2CCOCC2)n1)c1cccc2oc(-c3ccccc3C(F)(F)F)nc12` [Compound 140], for which the Emax was > 150% and the EC1.5 result is listed as “A (EC1-5<1.0 uM)”.

As to `O=C(Nc1nccs1)c1cccc2oc(-c3ccccc3OC(F)(F)F)nc12` [Compound 141], the Emax was > 150% and the EC1.5 result was “B (EC1-5 1-25 uM)”.

For the compound `O=C(Nc1ccccn1)c1cccc2oc(-c3ccccc3OC(F)(F)F)nc12` [Compound 142], the Emax is > 150% and the EC1.5 result is recorded as “B (EC1-5 1-25 uM)”.

For the compound `O=C(Nc1nccs1)c1cccc2oc(-c3ccc(F)cc3C(F)(F)F)nc12` [Compound 143], the Emax was < 150% and the EC1.5 result was “B (EC1-5 1-25 uM)”.

As to `O=C(Nc1ccccn1)c1cccc2oc(-c3ccc(F)cc3C(F)(F)F)nc12` [Compound 144], the Emax is < 150% and the EC1.5 entry is listed as “B (EC1-5 1-25 uM)”.

Turning to `O=C(Nc1nc(CN2CCOCC2)cs1)c1cccc2oc(-c3ccc(F)cc3C(F)(F)F)nc12` [Compound 145], the Emax was > 150% and the EC1.5 result is on record as “B (EC1-5 1-25 uM)”.

On to `O=C(Nc1cccc(CN2CCOCC2)n1)c1cccc2oc(-c3ccc(F)cc3C(F)(F)F)nc12` [Compound 146], for which the Emax was > 150% and the EC1.5 entry was “A (EC1-5<1.0 uM)”.

As to `O=C(Nc1nccs1)c1cccc2oc(-c3cc(F)ccc3C(F)(F)F)nc12` [Compound 147], the Emax was < 150% and the EC1.5 entry is reported as “C (EC1-5>25 uM)”.

Take `O=C(Nc1ccccn1)c1cccc2oc(-c3cc(F)ccc3C(F)(F)F)nc12` [Compound 148]: the Emax was < 150% and the EC1.5 entry is listed as “C (EC1-5>25 uM)”.

In the case of `O=C(Nc1nc(CN2CCOCC2)cs1)c1cccc2oc(-c3cc(F)ccc3C(F)(F)F)nc12` [Compound 149], the Emax was > 150% and the EC1.5 entry is “A (EC1-5<1.0 uM)”.

Take `O=C(Nc1cccc(CN2CCOCC2)n1)c1cccc2oc(-c3cc(F)ccc3C(F)(F)F)nc12` [Compound 150]: the Emax was > 150% and the EC1.5 entry is given as “A (EC1-5<1.0 uM)”.

On to `O=C(Nc1cccc(N2CCOCC2)n1)c1cccc2sc(-c3cccc(C(F)(F)F)c3)nc12` [Compound 151], for which the Emax was < 150% and the EC1.5 entry is given as “A (EC1-5<1.0 uM)”.

Consider `O=C(Nc1cccc(N2CCCC2)n1)c1cccc2sc(-c3cccc(C(F)(F)F)c3)nc12` [Compound 153], for which the Emax was > 150% and the EC1.5 result was “B (EC1-5 1-25 uM)”.

On to `O=C(Nc1ccnc(N2CCCC2)c1)c1cccc2sc(-c3cccc(C(F)(F)F)c3)nc12` [Compound 154], for which the Emax is > 150% and the EC1.5 result is “A (EC1-5<1.0 uM)”.
